Our source for the AC50 and IC50 values is ChEMBL document CHEMBL1201862, “PubChem BioAssay data set” (2004).

Activity calls are given as the source filed them.

Experiment [1] deals with T1, Histone-lysine N-methyltransferase NSD2 (Homo sapiens, UniProt O96028).
T1 sequence (O96028 whole entry): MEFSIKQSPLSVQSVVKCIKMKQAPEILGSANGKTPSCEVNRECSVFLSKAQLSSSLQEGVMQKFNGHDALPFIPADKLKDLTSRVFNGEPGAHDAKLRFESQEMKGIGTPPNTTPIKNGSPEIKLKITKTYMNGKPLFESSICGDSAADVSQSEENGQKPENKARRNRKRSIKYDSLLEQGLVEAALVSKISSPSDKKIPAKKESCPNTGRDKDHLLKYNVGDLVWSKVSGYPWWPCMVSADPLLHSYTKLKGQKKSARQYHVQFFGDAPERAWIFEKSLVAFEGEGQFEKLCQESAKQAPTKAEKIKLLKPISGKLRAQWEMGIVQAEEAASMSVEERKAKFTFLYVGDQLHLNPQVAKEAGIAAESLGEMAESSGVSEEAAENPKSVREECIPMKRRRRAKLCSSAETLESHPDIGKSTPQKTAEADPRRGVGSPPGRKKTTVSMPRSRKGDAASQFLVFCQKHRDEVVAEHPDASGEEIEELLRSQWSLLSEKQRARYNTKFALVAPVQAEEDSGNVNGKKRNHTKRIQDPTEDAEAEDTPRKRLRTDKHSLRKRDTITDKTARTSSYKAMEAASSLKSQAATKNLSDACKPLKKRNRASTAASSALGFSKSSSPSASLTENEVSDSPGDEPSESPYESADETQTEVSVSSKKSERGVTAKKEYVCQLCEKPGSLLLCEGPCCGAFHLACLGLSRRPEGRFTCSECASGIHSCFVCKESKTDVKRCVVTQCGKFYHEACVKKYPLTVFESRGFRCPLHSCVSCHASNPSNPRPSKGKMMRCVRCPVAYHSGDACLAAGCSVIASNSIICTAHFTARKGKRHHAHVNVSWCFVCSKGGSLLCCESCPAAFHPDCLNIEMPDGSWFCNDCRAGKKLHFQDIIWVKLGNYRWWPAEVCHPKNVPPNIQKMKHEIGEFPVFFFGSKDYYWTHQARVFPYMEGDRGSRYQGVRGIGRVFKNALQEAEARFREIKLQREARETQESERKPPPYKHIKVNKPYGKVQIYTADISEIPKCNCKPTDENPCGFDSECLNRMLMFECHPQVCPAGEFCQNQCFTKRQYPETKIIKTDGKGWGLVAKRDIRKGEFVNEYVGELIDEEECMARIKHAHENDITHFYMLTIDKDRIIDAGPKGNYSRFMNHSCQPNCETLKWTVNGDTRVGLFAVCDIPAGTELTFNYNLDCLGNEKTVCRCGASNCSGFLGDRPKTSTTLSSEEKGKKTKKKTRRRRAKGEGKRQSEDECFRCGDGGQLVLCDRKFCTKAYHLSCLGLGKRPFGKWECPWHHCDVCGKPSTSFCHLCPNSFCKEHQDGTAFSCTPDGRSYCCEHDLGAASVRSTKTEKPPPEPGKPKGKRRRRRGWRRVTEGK
Format: biochemical.

Experiment [2] addresses T2, Apoptotic protease-activating factor 1 (Homo sapiens, UniProt O14727).
T2 sequence (O14727 whole entry): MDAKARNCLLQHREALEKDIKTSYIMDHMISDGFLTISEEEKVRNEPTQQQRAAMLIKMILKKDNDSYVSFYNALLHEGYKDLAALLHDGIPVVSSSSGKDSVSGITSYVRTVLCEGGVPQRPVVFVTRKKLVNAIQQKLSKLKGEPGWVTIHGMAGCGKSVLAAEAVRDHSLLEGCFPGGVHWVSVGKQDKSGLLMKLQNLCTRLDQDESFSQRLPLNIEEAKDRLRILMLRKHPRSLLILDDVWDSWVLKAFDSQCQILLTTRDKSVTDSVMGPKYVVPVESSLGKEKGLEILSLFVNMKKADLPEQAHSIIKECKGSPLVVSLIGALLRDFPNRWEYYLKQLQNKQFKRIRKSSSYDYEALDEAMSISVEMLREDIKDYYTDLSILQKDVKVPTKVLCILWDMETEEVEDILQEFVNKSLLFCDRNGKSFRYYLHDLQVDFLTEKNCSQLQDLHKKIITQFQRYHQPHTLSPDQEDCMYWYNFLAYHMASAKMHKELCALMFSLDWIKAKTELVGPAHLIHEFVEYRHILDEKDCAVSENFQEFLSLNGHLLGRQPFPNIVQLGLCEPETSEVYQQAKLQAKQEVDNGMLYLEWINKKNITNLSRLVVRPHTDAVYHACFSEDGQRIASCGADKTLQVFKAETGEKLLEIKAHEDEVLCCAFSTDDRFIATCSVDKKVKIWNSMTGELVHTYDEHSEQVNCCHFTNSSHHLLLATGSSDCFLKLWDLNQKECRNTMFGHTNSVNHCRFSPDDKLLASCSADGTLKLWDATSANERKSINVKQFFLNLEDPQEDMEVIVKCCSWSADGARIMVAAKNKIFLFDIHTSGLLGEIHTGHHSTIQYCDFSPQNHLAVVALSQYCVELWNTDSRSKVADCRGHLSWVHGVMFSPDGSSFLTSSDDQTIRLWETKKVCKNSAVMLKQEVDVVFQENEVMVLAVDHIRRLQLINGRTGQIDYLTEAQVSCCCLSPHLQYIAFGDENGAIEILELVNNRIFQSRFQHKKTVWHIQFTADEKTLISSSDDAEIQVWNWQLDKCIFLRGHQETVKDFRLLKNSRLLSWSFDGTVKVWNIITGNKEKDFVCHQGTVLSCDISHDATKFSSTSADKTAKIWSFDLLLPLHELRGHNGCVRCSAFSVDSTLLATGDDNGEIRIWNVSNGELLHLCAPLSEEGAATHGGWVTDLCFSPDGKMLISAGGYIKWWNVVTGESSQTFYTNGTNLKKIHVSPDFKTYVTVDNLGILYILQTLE
The class given is functional.

A word on the AC50: it is the concentration giving half of the maximal activity seen. Usually IC50 stands for the midpoint of a concentration-inhibition curve. As for `CC(C)[n+]1ccn(C2=C([N-]S(=O)(=O)c3ccccc3)C(=O)c3ccccc3C2=O)c1`, the AC50 in experiment [1] was 5.79 µM (active). In addition, the IC50 in experiment [2] was 7.16 µM (active).

On to `CCCCCCCCCCOC(=O)Cn1c(COc2ccccc2)[n+](C)c2ccccc21`, for which the IC50 in experiment [2] was 12.6 µM (active).

Consider `COc1cc(-c2nnc(SCc3cc(=O)oc4cc(O)c(O)cc34)o2)cc(OC)c1OC`, for which the AC50 in experiment [1] was 0.665 µM (active).

In the case of `CCOC(=O)c1c(-c2ccc(-c3ccccc3)cc2)csc1NC(=O)CNCCN(C)C`, the IC50 in experiment [2] is 32.5 µM (active). Turning to `N#Cc1c(NC(=O)c2ccc(Br)o2)n(-c2ccccc2)c2nc3ccccc3nc12`, the AC50 in experiment [1] is 11.6 µM (active). Also, in experiment [2], the IC50 was 7.22 µM (active).
